The record followed here is ChEMBL document CHEMBL1151656, “Cucurbitacin B and isocucurbitacin B: cytotoxic components of Helicteres isora” (1985).

This assay is described as follows: Cytotoxicity against human 9KB cells. The format is functional.

Molecule `CC(=O)OC(C)(C)/C=C/C(=O)[C@](C)(O)[C@H]1[C@H](O)C[C@@]2(C)[C@@H]3CC=C4[C@H](C[C@H](O)C(=O)C4(C)C)[C@]3(C)C(=O)C[C@]12C` [CUCURBITACIN B] had an ED50 of under 1 ×10⁻⁵ ug/ml.
In turn, `CC(=O)OC(C)(C)/C=C/C(=O)[C@@](C)(O)[C@H]1[C@H](O)C[C@@]2(C)[C@@H]3CC=C4[C@@H](CC(=O)[C@@H](O)C4(C)C)[C@]3(C)C(=O)C[C@]12C` [ISOCUCURBITACIN B] displayed an ED50 of 7.6 ×10⁻⁵ ug/ml.
